Among the data in ChEMBL document CHEMBL1155289, “Stimulatory effect of apigenin-6-C-beta-L-fucopyranoside on insulin secretion and glycogen synthesis” (2009) are Activity values, retold here.

Holding throughout (format): functional
Assay [1] deals with Rattus norvegicus. In words: Antidiabetic activity against glucose loaded Wistar rat assessed as serum glucose level at 10 mg/kg, po by oral glucose tolerance test.
Assay [2] deals with Rattus norvegicus. In words: Antidiabetic activity against glucose loaded Wistar rat assessed as serum glucose level at 10 mg/kg, po after 15 mins by oral glucose tolerance test.
The test system of assay [3] is Rattus norvegicus. The assay can be described thus: Antidiabetic activity against glucose loaded Wistar rat assessed as serum glucose level at 10 mg/kg, po after 30 mins by oral glucose tolerance test.
The test system of assay [4] is Rattus norvegicus. In words: Antidiabetic activity against glucose loaded Wistar rat assessed as serum glucose level at 10 mg/kg, po after 60 mins by oral glucose tolerance test.

On to `Cc1cnc(C(=O)NCCc2ccc(S(=O)(=O)NC(=O)NC3CCCCC3)cc2)cn1` [GLIPIZIDE], for which the Activity was 120 mg/dL with Rattus norvegicus [1], 160 mg/dL in the assay on Rattus norvegicus [2], 143 mg/dL in the assay with Rattus norvegicus [3] and 123 mg/dL in the assay with Rattus norvegicus [4].
